The test system of assay [1] is Plasmodium falciparum. The assay can be described thus: Relative activity compared to artemisinin against Plasmodium falciparum Sierra Leone D6. The class given is functional.
Assay [2] deals with Plasmodium falciparum. Briefly: Relative activity compared to artemisinin against Plasmodium falciparum Indochina W2. The class given is functional.

Regarding `CC(C)[C@H]1C(=O)O[C@@H]2O[C@@]3(C)CC[C@H]4[C@H](C)CC[C@@H]1[C@@]24O3`, the Relative activity amounted to 0.02 in assay [1] and 0.07 in assay [2].
Turning to `CC[C@H]1C(=O)O[C@@H]2O[C@@]3(C)CC[C@H]4[C@H](C)CC[C@@H]1[C@@]24O3`, the Relative activity in assay [1] and in assay [2] was 0.001 in each case.

For the origin of these results see ChEMBL document CHEMBL1126576, “Structure-activity relationships of the antimalarial agent artemisinin. 1. Synthesis and comparative molecular field analysis of C-9 analogs of artemisinin and 10-deoxoartemisinin” (1993).
